Patent publication US5198441A, “Derivatives of 1,2-dihydro 2-oxo quinoxalines, their preparation and their use in therapy” (Pierre Fabre Medicament, priority 1989, dated 1993)
In brackets after ≈: the same amount, converted by molar mass.

Experiments:
[1] = test system: trachea contractions caused by potassium chloride; experiment: Antagonism of the effect of potassium chloride (contraction of isolated guinea pig trachea); conditions: Cavia porcellus, 5 min; potassium chloride 1850 μg/ml; 5 minutes contact; 37° C.
Method: (§1) The compounds of the invention were subjected to pharmacological tests which have shown their interest as broncholytics. For this purpose, the compounds were studied for their effect against contractions caused by various products in accordance with the following protocol.
(§2) A piece of the trachea of a male tri-color guinea pig of an average weight of 400 g is cut in a spiral and mounted (about 2.5 cm) in an isolated organ cell maintained thermostatically at 37° C. and filled with oxygenated tyrode. The isometric contractions caused by the different mediators are recorded by means of a Gould Statham UC2 detector (Gould Inc. Oxnard, Calif., USA) or UF1 Palmer Bioscience detector connected to a potentiometric recorder (Linseiss, Selb, Federal Republic of Germany). At the start of the experiment, the piece of trachea was placed under a tension of 1 g and set aside for one hour.
(§3) The following mediator concentrations are used (concentrations generally causing maximum contraction): histamine dihydrochloride, 10 μg/ml; acetylcholine chloride, 1 μg/ml; potassium salt of leucotrine D4, 0.05 μg/ml; potassium chloride, 1850 μg/ml. The concentrations of agents used produce contractions which become maximum within 5 to 15 minutes, depending on the mediators, and then remain at that level. One concentration of the product studied is administered for each contraction,and the product is left in contact with the trachea for 5 minutes. The inhibition, if any, obtained at the end of this time is measured (percentage variation in the amplitude of the contraction). The trachea is then washed for 15 seconds and set aside for about 10 minutes (time necessary to return to the base tone) before causing a new contraction.
(§4) The water-insoluble products are diluted in 0.178% (v/v) (final concentration in the bath) of dimethyl sulfoxide (DMSO).
(§5) The 50% inhibitory concentrations (IC 50) are calculated using an SAS program (Statistical Analysis System) based on Bliss and Cattel (Bliss C.I. and Cattel McK. Biological Assay Ann. Rev. Physiol. 5, 479, 1943).

[2] = test system: trachea contractions caused by histamine; experiment: Antagonism of the effect of histamine (contraction of isolated guinea pig trachea); conditions: Cavia porcellus, 5 min; histamine dihydrochloride 10 μg/ml; 5 minutes contact; 37° C.
Method: as §1, §2, §3, §4, §5

[3] = test system: trachea contractions caused by acetylcholine; experiment: Antagonism of the effect of acetylcholine (contraction of isolated guinea pig trachea); conditions: Cavia porcellus, 5 min; acetylcholine chloride 1 μg/ml; 5 minutes contact; 37° C.
Method: as §1, §2, §3, §4, §5

[4] = test system: trachea contractions caused by leucotriene D4; experiment: Antagonism of the effect of leucotriene D4 (contraction of isolated guinea pig trachea); conditions: Cavia porcellus, 5 min, leucotriene D4 potassium salt 0.05 μg/ml, 5 minutes contact; for inhibition at 10 µg/mL: 10 μg/ml, percentage variation in the amplitude of the contraction
Method: as §1, §2, §3, §4, §5

| SMILES | IC50 [1] [µg/mL] | IC50 [2] [µg/mL] | IC50 [3] [µg/mL] | IC50 ([4]; 37° C.) [µg/mL] | inhibition at 10 µg/mL [4] [%] |
| --- | --- | --- | --- | --- | --- |
| Cn1c(=O)c2[nH]cnc2n(C)c1=O [theophylline, reference compound] | 21 (≈ 117 µM) | 11.5 (≈ 63.8 µM) | 65 (≈ 361 µM) | 13.5 |  |
| COc1ccc(Cn2c(=O)c(CCC(C)O)nc3ccccc32)cc1 (stereo not drawn) [Compound 24] |  | 1.3 (≈ 3.84 µM) |  |  |  |
| C=CCn1c(=O)c(CCCO)nc2ccc(Cl)cc21 [Compound 5] | 17 (≈ 61 µM) |  |  |  |  |
| CCCn1c(=O)c(CCCOC(=O)NC)nc2ccccc21 [Compound 3, 1-propyl 3-(3-methylcarbamoyloxypropyl) 1,2-dihydro 2-oxo quinoxaline] |  | 3.3 (≈ 10.9 µM) | 7.1 (≈ 23.4 µM) |  |  |
| O=c1c(CCCO)nc2ccccc2n1CC1CC1 [Compound 15] |  |  |  |  | -64 |
| O=c1c(CCCO)nc2ccccc2n1Cc1ccccc1 [Compound 17] |  | 0.43 (≈ 1.46 µM) |  |  |  |
| CCCn1c(=O)c(CCCO)nc2ccccc21 [Compound 11] |  | 3.45 (≈ 14 µM) |  |  |  |
| C=CCn1c(=O)c(CCCO)nc2ccccc21 [Compound 8] | 12.3 (≈ 50.3 µM) |  |  |  |  |
| CC(C)=CCn1c(=O)c(CCCO)nc2ccccc21 [Compound 1, 1-prenyl 3-(3-hydroxypropyl) 1,2-dihydro 2-oxo quinoxaline] | 5.6 (≈ 20.6 µM) | 0.9 (≈ 3.3 µM) | 25.5 (≈ 93.6 µM) |  | -71 |
| CC=CCn1c(=O)c(CCCO)nc2ccccc21 [Compound 12] | 6.2 (≈ 24 µM) | 0.54 (≈ 2.09 µM) | 15.5 (≈ 60 µM) |  | -71 |
| CC(C)=CCn1c(=O)c(CCC(C)O)nc2ccccc21 (stereo not drawn) [Compound 20] |  | 1.55 (≈ 5.41 µM) | 9.7 (≈ 33.9 µM) |  |  |
| CC=CCn1c(=O)c(CCC(C)O)nc2ccccc21 (stereo not drawn) [Compound 19] |  | 1.13 (≈ 4.15 µM) | 16.5 (≈ 60.6 µM) |  |  |
